Assay results published in patent US9670514B2, “Method for producing polysaccharide” (SANYO CHEMICAL INDUSTRIES, LTD., priority 2011, dated 2017).

Key:
hyaluronan synthase = biological target: T1, hyaluronan synthase (Streptococcus pyogenes, UniProt P0C0H0, K60N); assay: Inhibitory concentration IC50 of uridine diphosphate against hyaluronan synthase (HPLC of hyaluronan); assay type: biochemical, Streptococcus equisimilis; details: hyaluronan synthase (B-1) 1.5 U/mL, 40° C., pH 7.5
T1 construct: FLAG; made in house; host or cells: Escherichia coli SURE, plasmid pKK223-3
T1 sequence (P0C0H0 1-419 K60N): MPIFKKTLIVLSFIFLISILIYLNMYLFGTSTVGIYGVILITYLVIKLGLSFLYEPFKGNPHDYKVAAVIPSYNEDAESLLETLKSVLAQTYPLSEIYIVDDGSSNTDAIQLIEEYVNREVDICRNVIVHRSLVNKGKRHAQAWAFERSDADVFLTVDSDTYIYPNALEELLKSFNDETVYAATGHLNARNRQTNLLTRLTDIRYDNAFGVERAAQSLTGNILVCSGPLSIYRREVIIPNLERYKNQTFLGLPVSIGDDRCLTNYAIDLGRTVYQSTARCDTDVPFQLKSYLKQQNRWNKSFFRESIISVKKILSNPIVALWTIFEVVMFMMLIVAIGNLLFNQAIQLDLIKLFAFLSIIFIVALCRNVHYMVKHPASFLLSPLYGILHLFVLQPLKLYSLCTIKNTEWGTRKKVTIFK
Procedure: An enzyme reaction solution (I) containing specific amounts of polysaccharide synthase (B), ribonucleoside diphosphate-monosaccharide (A), ribonucleoside diphosphate, pH adjuster (K), and water is prepared, which is adjusted to a specific temperature and a specific pH. […]
A portion (e.g., 100 μL) of the enzyme reaction solution (I) prepared is extracted immediately after preparation and at certain time intervals (e.g., 5 min). […] Using liquid chromatography (hereinafter abbreviated as HPLC), the amount of polysaccharide in each extracted reaction solution is quantitated. An initial enzyme reaction velocity v (M/s) is calculated from the difference ΔP (ΔP=Ph−P0) in peak areas and a calibration curve based on the peak areas of the polysaccharide, wherein P0 is the peak area immediately after preparation of the enzyme reaction solution (I), and Ph is the peak area after h hour(s) from preparation. […]

chondroitin synthase = biological target: T2, chondroitin synthase (Pasteurella multocida, UniProt Q9CMP0); assay: Inhibitory concentration IC50 against chondroitin synthase; assay type: biochemical
T2 construct: FLAG; made in house; host or cells: Escherichia coli SURE, as in Preparation 1
Procedure: Hyaluronan synthase aqueous solution (B-1) obtained in Preparation 1 was dissolved to a concentration of 1.5 U/mL in 940 μL of aqueous solution 1 (50 mM phosphate buffer (pH of 7.5, 25° C.) containing 5 mM magnesium chloride and 0.05 mM sodium uridine diphosphate) in a 1.5 mL-tube. The tube was allowed to stand at 40° C. for 20 minutes in a constant temperature water bath. To the tube was added 50 μL of temperature-adjusted (40° C.) substrate solution [1-1] (a solution obtained by dissolving uridine diphosphate-glucuronic acid sodium salt and uridine diphosphate-N-acetylglucosamine both to a concentration of 20 mM in buffer solution B (50 mM phosphate buffer, pH of 7.5, 25° C.)). Thereby, enzyme reaction solution (I-1) was obtained. […] The supernatant (80 μL) was analyzed by HPLC under the following conditions, and the peak areas of hyaluronan were recorded. […]
The inhibitory concentration IC50 was measured in a similar manner as in “Measurement of the inhibitory concentration IC50 against hyaluronan synthase”, except that “chondroitin synthase aqueous solution (B-2) obtained in Preparation 11” was used in place of “hyaluronan synthase aqueous solution (B-1) obtained in Preparation 1”, “substrate solution [1-2] […]
The inhibitory concentration IC50 was also determined in a similar manner, except that the amount of chondroitin synthase aqueous solution (B-2) was changed from 1.5 U/mL to 45 U/mL.

O=c1ccn([C@@H]2O[C@H](COP(=O)(O)OP(=O)(O)O)[C@@H](O)[C@H]2O)c(=O)[nH]1 [uridine diphosphate]
IC50 (hyaluronan synthase): 110 µM | IC50 (chondroitin synthase): 85 µM
